Measurements taken from patent publication US3963745A, “Method for controlling emesis with N-(1-substituted-3-pyrrolidinyl)benzamides and thiobenzamides” (A. H. Robins Company, Incorporated, priority 1974, dated 1976).
Where a name gives a salt, the structure may show the parent alone. Read-outs that look alike come from different tables or passages of the source.

Legend:
Assay type in all cases: in vivo
[1] = tested on: apomorphine-induced emesis; test: apomorphine-induced emesis in dogs (anti-emetic effect); conditions: for ED50: Canis lupus familiaris
Method: The anti-emetic properties of the compounds of Formulae I and II were established using a modification of the methods of Chen and Ensor, J. Pharmac. Exp. Ther. 98: 245-250 (1950) and of Leonard et al, J. Pharmac. Exp. Ther. 154, 339-345 (1966). Drug activity was assessed by its ability to reduce the frequency of apomorphine-induced emesis in dogs. The dogs were prescreened for fairly constant emetic responses to the subcutaneous administration of 0.1 mg./kg. of apomorphine hydrochloride, and those which vomited five or more times in the 40-minute period after apomorphine administration were selected for drug studies.
Groups of three dogs were used in preliminary tests and for the determinations of time of peak drug effect. Dose response curves were usually obtained using four drug-treated groups; each group contained at least three dogs. The dogs were fed approximately 17 hours prior to a test. Drugs were administered and at suitable intervals the dogs received 0.1 mg/kg of apormorphine hydrochloride subcutaneously. Frequency of emesis was determined during the next 40 minutes and emesis was counted as the actual expulsion of stomach contents.
In oral studies, drugs were administered in gelatin capsules (controls received an empty capsule). In the subcutaneous studies, drugs were administered in distilled water and/or polyethylene glycol-300.
Dogs were re-used at intervals of not less than one week. The ED50 is the dose which reduces the frequency of emesis of drug treated dogs to a value 50% below that of controls. Mean frequency of emesis for each drug treated group was compared with a mean control value derived by pooling the prior control emetic frequencies for all dogs used on that test day. The difference is expressed as a percentage decrease relative to controls. The per cent decrease in mean frequency of emesis for each drug-treated group (ordinate) was plotted against log dose (abscissa) on semi-log graph sheets. The ED50 was calculated by the method of Goldstein (Biostatistics, An Introductory Test; Pages 156-161; the MacMillan Co., New York, 1964).

catalepsy in rats [2] = test: Catalepsy in rats; conditions: Table 7, rats, IP
Method: (§1) Drugs were blind tested with positive and negative controls. The procedure used is a modification of the method previously described by Tedeschi et al., Archs. Int. Pharmacodyn. Ther. 122, 129-143 (1959). The modified procedure is as follows.
(§2) Groups of six rats are dosed (IP) with drugs in saline solution and tested hourly over a 6 hour period. A phenothiazine or non-phenothiazine reference standard is tested concomitantly as a positive control; negative controls receive only the saline vehicle. After administration the rats are positioned hourly with each foot on a No. 7 rubber stopper. A rat is considered cataleptic if it remains immobile on the stoppers for five seconds or longer at two or more consecutive hourly observation intervals. […] Exp. Ther. 96, 99-113 (1949).

Catalepsy in rats [3] = conditions: rat, in vivo, ip
Method: as §1, §2

[4] = sc, Table 4, dogs, subcutaneous, doses expressed as free base, read-out: ED50, Anti-Emetic Effect of Subcutaneous Administration
[5] = sc, Table 7, dogs, subcutaneous, as free base, read-out: Anti-Apomorphine Effect ED50
[6] = sc, read-out: ED50, Anti-Emetic Effect of Subcutaneous Administration
[7] = sc, Table 6, dogs, subcutaneous, as free base, read-out: Anti-Apomorphine Effect ED50
[8] = Table 5, dogs, oral, doses expressed as free base, read-out: ED50, Anti-Emetic Effect of Oral Administration

Molecule `O=C(NC1CCN(C2CCCCC2)C1)c1cccc(Br)c1` (stereo not drawn) [Example 1, N-(1-Cyclohexyl-3-pyrrolidinyl)-3-bromobenzamide] has an ED50 [1, 4] of 0.4 mg/kg.

For `O=C(NC1CCN(C2CCCCC2)C1)c1ccccc1F` (stereo not drawn) [Example 2, N-(1-Cyclohexyl-3-pyrrolidinyl)-2-fluorobenzamide hydrochloride], the ED50 [1, 4] was 1.6 mg/kg.

`CN(C(=O)c1ccc(N)cc1)C1CCN(C2CCCCC2)C1` (stereo not drawn) [Example 4, 4-Amino-N-(1-cyclohexyl-3-pyrrolidinyl)-N-methylbenzamide Cyclohexanesulfamate] gave an ED50 [1, 5] of 0.27 mg/kg, an ED50 ([1]; sc, dogs, subcutaneous, cyclohexanesulfamate salt dose, read-out: ED50 for subcutaneous administration) of 0.43 mg/kg and an ED50 ([1]; sc, dogs, subcutaneous, expressed as free base (Example 1P), read-out: ED50 for subcutaneous administration, expressed as free base) of 0.27 mg/kg. The blockage of apomorphine induced emesis ([1]; dogs, oral capsules 2.5 mg./kg., apomorphine after two hours) was 95%, the blockage of emesis ([1]; dogs, subcutaneous 5.0 mg./kg. (3.12 mg./kg. as free base), apomorphine one hour later, 40-minute period) was 100% and the “Catalepsy (ED50 or other): no catatonia up to dose” value (catalepsy in rats [2]; as free base) was “no catatonia to 125”.

For `CN(C)c1ccc(C(=O)N(C)C2CCN(C3CCCCC3)C2)cc1` (stereo not drawn) [Example 6, N-(1-Cyclohexyl-3-pyrrolidinyl)-p-dimethylamino-N-methylbenzamide Fumarate], the ED50 [1, 4] was 1.1 mg/kg.

In the case of `CC(=O)Nc1ccc(C(=O)NC2CCN(C3CCCCC3)C2)cc1` (stereo not drawn) [Example 7, N-(1-Cyclohexyl-3-pyrrolidinyl)-4-acetamidobenzamide], the ED50 [1, 6] is reported as 2.4 mg/kg.

Molecule `CN1CCC(NC(=O)c2ccccc2)C1.O=C(O)/C=C/C(=O)O` (stereo not drawn) [Example 8(A), N-(1-Methyl-3-pyrrolidinyl)benzamide Fumarate, reference compound] has an ED50 [1, 7] of 3.2 mg/kg.

Work on `COc1cc(N)c(Cl)cc1C(=O)NC1CCN(C)C1` (stereo not drawn) [Example 8(B), 4-Amino-5-chloro-2-methoxy-N-(1-methyl-3-pyrrolidinyl)benzamide, reference compound] yielded an ED50 [1, 7] of 0.053 mg/kg.

In the case of `CNc1ccc(C(=O)N(C)C2CCN(C3CCCCC3)C2)cc1.Cl.Cl` (stereo not drawn) [Example 9, 4-Methylamino-N-(1-cyclohexyl-3-pyrrolidinyl)-N-methylbenzamide Dihydrochloride], the ED50 [1, 4] is reported as 0.5 mg/kg.

`O=C(NC1CCN(C2CCCCC2)C1)c1ccc(F)cc1` (stereo not drawn) [Example 10] gave an ED50 [1, 6] of 0.15 mg/kg and an ED50 [1, 8] of 1.5 mg/kg.

For `O=C(NC1CCN(C2CCCCC2)C1)c1ccc(Br)cc1` (stereo not drawn) [Example 11], the ED50 [1, 4] was 0.7 mg/kg.

`O=C(NC1CCN(C2CCCCC2)C1)c1cc([N+](=O)[O-])cc([N+](=O)[O-])c1` (stereo not drawn) [Example 12] showed an ED50 [1, 6] of 0.15 mg/kg.

With `O=C(NC1CCN(C2CCCCC2)C1)c1ccc(Cl)c(Cl)c1` (stereo not drawn) [Example 13] the ED50 [1, 4] was 0.28 mg/kg.

In the case of `CCOc1ccc(C(=O)NC2CCN(C3CCCCC3)C2)cc1OCC` (stereo not drawn) [Example 15], the ED50 [1, 4] is reported as 0.66 mg/kg.

`O=C(NC1CCN(C2CCCCC2)C1)c1cccc(C(F)(F)F)c1` (stereo not drawn) [Example 16] gave an ED50 [1, 4] of 0.18 mg/kg.

`O=C(NC1CCN(C2CCCCC2)C1)c1ccc(Cl)cc1` (stereo not drawn) [Example 17] gave an ED50 [1, 4] of 0.28 mg/kg.

`COc1cc(C(=O)NC2CCN(C3CCCCC3)C2)cc(OC)c1OC` (stereo not drawn) [Example 18] gave an ED50 [1, 4] of 0.4 mg/kg.

With `O=C(NC1CCN(C2CCCCC2)C1)c1ccc(I)cc1` (stereo not drawn) [Example 20] the ED50 [1, 4] was 1.25 mg/kg.

`Nc1ccc(C(=O)NC2CCN(C3CCCCC3)C2)cc1` (stereo not drawn) [Example 23] gave an ED50 [1, 4] of 1.67 mg/kg, an ED50 [1, 5] of 1.7 mg/kg and an ED50 [1, 8] of 2.5 mg/kg. For the same molecule, the “Catalepsy, percentage of rats cataleptic” value (catalepsy in rats [2]; at 94.2 mg/kg as free base) was 33%.

Molecule `O=C(NC1CCN(C2CCCCC2)C1)c1ccccc1` (stereo not drawn) [Example 24] has an ED50 [1, 4] of 0.28 mg/kg and an ED50 [1, 7] of 0.28 mg/kg.

Work on `O=C(NC1CCN(C2CCCCC2)C1)c1ccc([N+](=O)[O-])cc1` (stereo not drawn) [Example 25] yielded an ED50 [1, 4] of 2.03 mg/kg, an ED50 [1, 5] of 1.8 mg/kg and a TD50 at 6 h (Catalepsy in rats [3]) of 28 mg/kg.

In the case of `CN(C(=O)c1ccc([N+](=O)[O-])cc1)C1CCN(C2CCCCC2)C1` (stereo not drawn) [Example 27], the ED50 [1, 5] is reported as 10 mg/kg, the “Catalepsy (ED50 or other): no catatonia up to dose” value (catalepsy in rats [2]; as free base) is reported as “no catatonia to 100” and the lethal dose (catalepsy in rats [2]; as free base) is reported as 100 mg/kg.

`O=C(NC1CCN(C2CCCCC2)C1)c1ccc(Cl)cc1Cl` (stereo not drawn) [Example 32] gave an ED50 [1, 6] of 2.4 mg/kg.

With `CSc1ccc(C(=O)NC2CCN(C3CCCCC3)C2)cc1` (stereo not drawn) [Example 33] the ED50 [1, 4] was 0.88 mg/kg.

In the case of `COc1ccc(C(=O)NC2CCN(C3CCCCC3)C2)c(OC)c1` (stereo not drawn) [Example 34], the ED50 [1, 4] is reported as 0.026 mg/kg.

`CN(C)c1ccc(C(=O)NC2CCN(C3CCCCC3)C2)cc1` (stereo not drawn) [Example 35] showed an ED50 [1, 4] of 0.89 mg/kg.

Molecule `Cc1ccc(C(=O)NC2CCN(C3CCCCC3)C2)cc1` (stereo not drawn) [Example 36] has an ED50 [1, 4] of 0.31 mg/kg.

With `COc1cc(N)c(Cl)cc1C(=O)NC1CCN(C2CCCCC2)C1` (stereo not drawn) [Example 37] the ED50 [1, 4] was 0.003 mg/kg and the ED50 [1, 7] was 0.003 mg/kg.
